Results published in paper PMC7168207, “Dibasic Derivatives of Phenylcarbamic Acid as Prospective Antibacterial Agents Interacting with Cytoplasmic Membrane” (Antibiotics, 2020).
“And” between values parts separate entries of the source, which are not always exact repeats. Equal entries are not always repeated.

What was measured:
[1] = test system: Candida albicans CCM 8261; experiment: minimum fungistatic concentration, RPMI 1640; format: cell-based; details: CCM8261, CA = C albicans CCM 8261, 48 h
Procedure: Fungistatic activity was tested similarly in RPMI (Roswell Park Memorial Institute) 1640 medium (Sigma, Pool, UK). […] A growth control and sterility control were included. The colonies of C. albicans grown overnight on Sabourad dextrose agar were suspended in sterile phosphate-buffered saline (PBS) to get cell density 0.5 McFarland. The inoculum was diluted to get a final concentration of 10^3 CFU/mL in the wells. Plates were inoculated and cultivated at 37 °C for 48 h. The minimum fungistatic concentration was visually evaluated as the lowest concentration of a tested compound, which inhibited 100% of yeast growth. 5-Flucytosin (Sigma, UK) was used as a positive control.

[2] = parameters: method as in PMID 30274224; details: methanolic solutions, c = 8.0 × 10^−5 M; cited from earlier work
E. faecalis ATCC 29212 = experiment: MIC, broth microdilution; format: cell-based, Enterococcus faecalis; details: Enterococcus faecalis, ATCC 29212 / ATCC 29213; EF = E. faecalis ATCC 29213
Summary of the method: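 Broth microdilution in CaMH (staphylococci) or BHI (enterococci), 5 × 10^5 CFU/mL per well, 37 °C aerobic overnight.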

For `CCCCCOc1cccc(NC(=O)OC(CN(CCC)CCC)CN2CCCC2)c1.Cl.Cl` (stereo not drawn) [1f, 1-[3-(dipropylammonio)-2-({[3-(pentyloxy)phenyl]carbamoyl}-oxy)propyl]pyrrolidinium dichloride], the MIC [1] is listed as 128 µg/mL and 252 µM, the “log ε2 (Ch-T)” value [2] is listed as 4.27 and the MIC (E. faecalis ATCC 29212) is listed as 32 µg/mL and 63.2 µM.
